“And” between values parts separate entries of the source, which are not always exact repeats. Equal values may be shown once. “Also recorded” adds a separate entry of the source. Read-outs that look alike come from different tables or passages of the source.
Key:
γH2AX in MCF10A cells = test: DNA damage marker γH2AX, p53wt MCF10A; type: cell-based, human
Method: (§1) Cells were grown on glass coverslips (22×22 mm) and treated with inhibitors for various times, then fixed with 4% PFA and permeabilized with 0.05% Triton X-100. For γH2AX staining samples were blocked with 3% milk in PBS for 30 min at room temperature (RT), and then incubated for 1 h with antibodies to γH2AX (1:400) in 1% milk/PBS followed by incubation with Texas red-conjugated secondary antibody (1:500) for 30 min at RT. For evaluation of genomic EdU, cells were grown on glass coverslips, and then pulse-labeled with EdUrd as described for flow cytometry. Cells were fixed at various times with 4% PFA and permeabilized with 0.05% Triton X-100, and then EdU was labeled with Cy3 azide using ‘click-it’ reaction as described above. DNA was labeled with Hoechst 33342 before mounting on glass slides. Fluorescence images were taken with a Plan Apochromat 60×/1.40 NA oil objective at ambient temperature using Nikon TE2000-E inverted microscope equipped with a charge-coupled device camera (CoolSNAP HQ; Photometrics). The images were acquired using MetaVue imaging software (v7.7.3, Molecular Devices). Experiments were repeated twice with representative images shown.
(§2) Immunoblotting: Tumor cells were seeded in a 6-well plate at 300,000 cells/well and treated with various reagents. Whole-cell lysates were prepared using NP40 lysis buffer containing PMSF, Na-Orthovanadate, and protease inhibitor cocktail. Snap-frozen tumor tissues were ground and suspended in NP40 lysis buffer. Protein concentrations in lysates were quantitated and 15 μg of protein/lane were resolved on a 10% SDS-PAGE gel. Proteins were transferred onto a nitrocellulose membrane in 10% Methanol-SDS buffer and probed with appropriate antibodies. ECL reagent was used to visualize immune-complexes on radiographic films.

[1] = Cytotoxicity assay (methylene blue), MCF10A; type: cell-based, human; conditions: human, MCF10A cells (p53wt), single agent, read-out: IC50, cytotoxicity, drug alone
Method: (§3) Cells were plated at a density of 5,000 cells/well in a 96 well-plate and then treated with the appropriate drugs at varying concentrations for 24 hours. Media was replenished with media with or without PARP inhibitors and cell were incubated for 96 hours. Cells were stained with 1% Methylene Blue for 30 minutes, rinsed with water, dried and then solubilized in 5% SDS in PBS, and read at 650 nm. IC50 values were generated using GraphPad Prism8 (Version 8.4.2).
(§4) Cytotoxicity Assay: Cells were plated at a density of 5,000 cells/well in a 96 well-plate and then treated with the appropriate drugs at varying concentrations for 24 hours. Media was replenished with media with or without PARP inhibitors and cell were incubated for 96 hours. Cells were stained with 1% Methylene Blue for 30 minutes, rinsed with water, dried and then solubilized in 5% SDS in PBS, and read at 650 nm. IC50 values were generated using GraphPad Prism8 (Version 8.4.2).

MDA-MB-231 cells [2] = test: Cytotoxicity assay (methylene blue), MDA-MB-231; type: cell-based, human; conditions: single agent, read-out: IC50, cytotoxicity, drug alone
Method: as §3, §4

[3] = tested on: γH2AX in p53mt MDA-MB-231 cells; test: DNA damage marker γH2AX, p53mt cancer cells; type: cell-based, human; conditions: p53mt / p53-deficient cells
Method: as §1
Immunoblotting: Tumor cells were seeded in a 6-well plate at 300,000 cells/well and treated with various reagents. […] Protein concentrations in lysates were quantitated and 15 μg of protein/lane were resolved on a 10% SDS-PAGE gel. […]

[4] = tested on: p53-p21 signaling in MCF10A cells; test: p53-p21 signaling immunoblot, MCF10A; type: cell-based, human; conditions: for p53-p21 signaling response: MCF10A (p53wt)
Method: as §2

[5] = molecular target: thymidylate synthase (TS) (Homo sapiens, UniProt P04818); conditions: cited from earlier work
MCF10A cells [6] = test: Cytotoxicity assay (methylene blue), MCF10A; type: cell-based, human; conditions: MCF10A (p53wt), single agent; read-out: IC50, cytotoxicity, drug alone
Method: as §3, §4

MDA-MB-231 tumors = type: in vivo; conditions: 5 days-on, 2 days-off
Method: (§5) Tumor growth was monitored by measuring tumor diameters with electronic calipers twice/week. Volumes were calculated using the formula (length)×(width)2/2. Mouse weights were measured twice/week. […] Drugs were given at 50 mg/kg by oral gavage on schedule 5-days-on and 2-days-off. At the endpoint, mice were euthanized and subjected to necropsy and organ collection. Tumor tissues were collected for RNA and protein analyses by snap-freezing in liquid nitrogen. Blood was collected for CBC by cardiac puncture.
Statistical significance of data comparisons were determined using the Student's unpaired t-test with a two-tailed distribution. Statistical significance was achieved when P<0.05. […]

[7] = tested on: p53-p21 signaling in MDA-MB-231 cells; test: p53-p21 signaling immunoblot, MDA-MB-231; type: cell-based, human; conditions: MDA-MB-231 (p53mt)
Method: as §2

[8] = tested on: p53-deficient cancer cell lines; test: Cytotoxicity assay, p53-deficient (p53mt) cancer cell lines; type: cell-based, human
Method: as §3, §4

MDA-MB-231 cells [9] = test: Cell cycle analysis by flow cytometry, p53mt cancer cells; type: cell-based, human
Method: (§6) All samples were analyzed on an LSRFortessa Cytometer (BD Biosciences) running FACSDiva (Version 6.1.3), and the data were processed using FCS Express 7 (Version 7.04.0016). For the EdUrd pulse experiments, 300,000 cells per well were seeded in a 6-well plate, and the following day media was replaced with base media containing 5% dialyzed FBS. Cells were then incubated with 10 μM EdUrd for two hours, while untreated cells served as the negative control. Following the two-hour pulse, cells were washed twice with DPBS and the media was replenished. Collection of cells began at t=0 hr up to t=72 hr post EdUrd-pulse. Cells were collected using standard trypsinization, washed in 1% BSA in DPBS, and fixed in 4% paraformaldehyde for 15 minutes. Cells underwent two more washes in 1% BSA/DPBS before being permeabilized in 1× saponin buffer. […] Samples were sorted using a BD LSRFortessa cytometer running FACSDiva (Version 6.1.3), and the data were analyzed using ModFit Lt software (Version 5.0.9). […]
(§7) Flow cytometry: All samples were analyzed on an LSRFortessa Cytometer (BD Biosciences) running FACSDiva (Version 6.1.3), and the data were processed using FCS Express 7 (Version 7.04.0016). […] Samples were sorted using a BD LSRFortessa cytometer running FACSDiva (Version 6.1.3), and the data were analyzed using ModFit Lt software (Version 5.0.9). […]

MDA-MB-231 cells [10] = test: EdU-removal assay / genomic EdU, MDA-MB-231; type: cell-based, human
Method: as §6
(§8) Cells were grown on glass coverslips (22×22 mm) and treated with inhibitors for various times, then fixed with 4% PFA and permeabilized with 0.05% Triton X-100. […] Fluorescence images were taken with a Plan Apochromat 60×/1.40 NA oil objective at ambient temperature using Nikon TE2000-E inverted microscope equipped with a charge-coupled device camera (CoolSNAP HQ; Photometrics). […]

MCF10A cells [11] = test: EdU-removal assay, MCF10A; type: cell-based, human; conditions: 0.5 μM Olaparib after 2 hr EdU pulse
Method: as §6, §8

MCF10A cells [12] = test: Cell cycle analysis by flow cytometry, MCF10A; type: cell-based, human; conditions: MCF10A (p53wt)
Method: as §6, §7

MIAPACA-2 tumors = test: MIAPACA-2 subcutaneous pancreatic cancer xenograft in mice; type: in vivo; conditions: 50 mg/kg each drug, oral gavage, 5 days-on, 2 days-off
Method: as §5, with “calipers” for “calipers twice/week. Volumes were calculated using the formula (length)×(width)2/2. Mouse weights were measured”
Statistical significance was achieved when P<0.05.

[13] = tested on: BRCA1-deficient cell lines; conditions: cited from earlier work
[14] = tested on: PARylation activity in MCF10A and MDA-MB-231 cells; test: Inhibition of PARylation activity in cell culture (immunoblot); type: cell-based, human; conditions: 24 hrs
Method: as §2

[15] = Homo sapiens, MDA-MB-231, MDA-MB-231 (p53mt)

Chain of thymidylate synthase (TS) (P04818 whole entry, species assumed): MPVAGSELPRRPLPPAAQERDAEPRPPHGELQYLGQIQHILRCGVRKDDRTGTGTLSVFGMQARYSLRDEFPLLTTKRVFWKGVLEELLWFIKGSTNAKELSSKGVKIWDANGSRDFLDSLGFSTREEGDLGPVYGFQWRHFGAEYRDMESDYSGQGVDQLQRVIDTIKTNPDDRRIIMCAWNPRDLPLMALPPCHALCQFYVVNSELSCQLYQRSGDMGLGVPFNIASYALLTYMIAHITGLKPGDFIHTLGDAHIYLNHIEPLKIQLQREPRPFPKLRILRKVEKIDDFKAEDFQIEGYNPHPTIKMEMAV

## O=c1[nH]c(=O)n([C@H]2C[C@H](O)[C@@H](CO)O2)cc1F [FdUrd, 5-fluoro-2′-deoxyuridine]
γH2AX in MCF10A cells
  γH2AX (DNA damage) response: induced transiently at 6 hrs of FdU exposure and declined by 48 hrs
[1]
  IC50 at 24 h: 1.6 µM
MDA-MB-231 cells [2]; [15]
  IC50: 5.5 µM
[3]
  γH2AX (DNA damage) response: induced by 24 hrs and remained at high levels at 48 hrs
[4]
  p53-p21 signaling response: induced p53-p21 signaling

## O=c1[nH]c(=O)n([C@H]2C[C@H](O)[C@@H](CO)O2)cc1C(F)(F)F [TFT, 5-trifluoro-2′-deoxythymidine]
[5]
  Inhibition of TS: 0.38 nM

## O=C(c1cc(Cc2n[nH]c(=O)c3ccccc23)ccc1F)N1CCN(C(=O)C2CC2)CC1 [olaparib]
MCF10A cells [6]
  IC50: 15.3 µM
[1]
  IC50 at 24 h: 14.5 µM
MDA-MB-231 cells [2]; [15]
  IC50: 17.6 µM
MDA-MB-231 cells [2]; MDA-MB-231 (p53mt)
  IC50: 17.4 µM
MDA-MB-231 tumors; 50 mg/kg each drug, oral gavage
  Median survival (time-to-arrive at 300 mm3 tumor size): 21 days
MDA-MB-231 tumors; 50 mg/kg oral gavage
  Tumor growth: did not affect tumor growth
[7]
  p53-p21 signaling response: p21 was not regulated; also recorded: no response was observed
[8]; Homo sapiens, read-out: IC50 for cancer cells, PARPi alone
  IC50: 16 to 24 µM
MDA-MB-231 cells [9]
  Cell cycle effect: increased G2 fraction at the expense of S phase
MDA-MB-231 cells [10]; MDA-MB-231, 0.5 μM Olaparib after 2 hr EdU pulse
  Effect on removal of EdU: had no effect
MCF10A cells [11]
  Effect on removal of EdU: significantly delayed removal of EdU
MCF10A cells [12]
  Cell cycle effect: increased G1-population
MIAPACA-2 tumors
  Median survival (time-to-arrive at 500 mm3 tumor size): 21 days
[13]
  IC50: < 1 µM
[14]
  Concentration inhibiting PARylation activity in cells: 100 to 500 nM and 50 to 100 nM
[4]; MCF10A
  Concentration activating p53-p21 signaling: 200 nM
[4]
  p53-p21 signaling response: induced p53-p21 signaling
[4]; MCF10A, 24 hrs
  Concentration inducing p53-p21 signaling: 0.2 to 0.5 µM

## Cn1ncnc1[C@H]1c2n[nH]c(=O)c3cc(F)cc(c23)N[C@@H]1c1ccc(F)cc1 [talazoparib]
[8]; Homo sapiens; read-out: IC50 for cancer cells, PARPi alone
  IC50: 2 to 4 µM
MDA-MB-231 cells [9]
  Cell cycle effect: increased G2 fraction at the expense of S phase
[14]
  Concentration inhibiting PARylation activity in cells: 50 nM
[4]
  p53-p21 signaling response: p21 induction was observed only in p53wt cells

## O=c1[nH]cc(F)c(=O)[nH]1 [5FU, 5-fluoro-uracil]
[8]; olaparib 0.5 μM; tested cell lines
  Cooperation of 5FU with olaparib in cytotoxicity: did not cooperate with olaparib; also recorded: does not enhance cytotoxicity

## C#Cc1cn([C@H]2C[C@H](O)[C@@H](CO)O2)c(=O)[nH]c1=O [EdUrd, 5-ethynyl-2′-deoxy-uridine]
γH2AX in MCF10A cells
  γH2AX (DNA damage) response: transient increase of γH2AX levels
MDA-MB-231 cells [10]; 24 hrs after 2 hr EdUrd pulse, flow cytometry
  Increase of EdU+ fraction after EdUrd-pulse: ~25%
[3]
  γH2AX (DNA damage) response: continued accumulation of DNA damage signal

## COc1ccc(C2=N[C@@H](c3ccc(Cl)cc3)[C@@H](c3ccc(Cl)cc3)N2C(=O)N2CCNC(=O)C2)c(OC(C)C)c1 [Nutlin-3A]
γH2AX in MCF10A cells
  γH2AX (DNA damage) response: did not induce DNA damage γH2AX marker
